Measured values as given in patent US9096500B2, “Acyl sulfonamide compounds” (Pfizer Limited, priority 2010, dated 2015).

What was measured:
[1] = molecular target: T1, Nav1.7 (or SCN9A) channel (Homo sapiens, UniProt Q15858); test: Nav1.7 (hSCN9A) electrophysiology assay, Ionworks Quattro platform; type: cell-based; settings: IW: Ionworks Quattro automated electrophysiological platform; HEK cells stably expressing hSCN9A; read-out: Nav1.7 EIC50
T1 construct: expressed in transfected cells

[2] = molecular target: T1, Nav1.7 (or SCN9A) channel; test: Nav1.7 (hSCN9A) electrophysiology assay, PatchXpress platform; type: cell-based; settings: estimated IC50 from single point electrophysiology data, HEK cells stably expressing hSCN9A, held at V1/2 of inactivation, read-out: Nav1.7 EIC50
Summary of the method: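 HEK cells stably expressing hSCN9A were recorded by whole-cell voltage clamp, including on PatchXpress, at 22–24°C with extracellular solution at pH 7.4. A 20 msec step to 0 mV followed an 8 s conditioning prepulse to the empirically determined inactivation V1/2. Inhibition was taken from current amplitude before vs after compound.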

T1 sequence (Q15858 whole entry): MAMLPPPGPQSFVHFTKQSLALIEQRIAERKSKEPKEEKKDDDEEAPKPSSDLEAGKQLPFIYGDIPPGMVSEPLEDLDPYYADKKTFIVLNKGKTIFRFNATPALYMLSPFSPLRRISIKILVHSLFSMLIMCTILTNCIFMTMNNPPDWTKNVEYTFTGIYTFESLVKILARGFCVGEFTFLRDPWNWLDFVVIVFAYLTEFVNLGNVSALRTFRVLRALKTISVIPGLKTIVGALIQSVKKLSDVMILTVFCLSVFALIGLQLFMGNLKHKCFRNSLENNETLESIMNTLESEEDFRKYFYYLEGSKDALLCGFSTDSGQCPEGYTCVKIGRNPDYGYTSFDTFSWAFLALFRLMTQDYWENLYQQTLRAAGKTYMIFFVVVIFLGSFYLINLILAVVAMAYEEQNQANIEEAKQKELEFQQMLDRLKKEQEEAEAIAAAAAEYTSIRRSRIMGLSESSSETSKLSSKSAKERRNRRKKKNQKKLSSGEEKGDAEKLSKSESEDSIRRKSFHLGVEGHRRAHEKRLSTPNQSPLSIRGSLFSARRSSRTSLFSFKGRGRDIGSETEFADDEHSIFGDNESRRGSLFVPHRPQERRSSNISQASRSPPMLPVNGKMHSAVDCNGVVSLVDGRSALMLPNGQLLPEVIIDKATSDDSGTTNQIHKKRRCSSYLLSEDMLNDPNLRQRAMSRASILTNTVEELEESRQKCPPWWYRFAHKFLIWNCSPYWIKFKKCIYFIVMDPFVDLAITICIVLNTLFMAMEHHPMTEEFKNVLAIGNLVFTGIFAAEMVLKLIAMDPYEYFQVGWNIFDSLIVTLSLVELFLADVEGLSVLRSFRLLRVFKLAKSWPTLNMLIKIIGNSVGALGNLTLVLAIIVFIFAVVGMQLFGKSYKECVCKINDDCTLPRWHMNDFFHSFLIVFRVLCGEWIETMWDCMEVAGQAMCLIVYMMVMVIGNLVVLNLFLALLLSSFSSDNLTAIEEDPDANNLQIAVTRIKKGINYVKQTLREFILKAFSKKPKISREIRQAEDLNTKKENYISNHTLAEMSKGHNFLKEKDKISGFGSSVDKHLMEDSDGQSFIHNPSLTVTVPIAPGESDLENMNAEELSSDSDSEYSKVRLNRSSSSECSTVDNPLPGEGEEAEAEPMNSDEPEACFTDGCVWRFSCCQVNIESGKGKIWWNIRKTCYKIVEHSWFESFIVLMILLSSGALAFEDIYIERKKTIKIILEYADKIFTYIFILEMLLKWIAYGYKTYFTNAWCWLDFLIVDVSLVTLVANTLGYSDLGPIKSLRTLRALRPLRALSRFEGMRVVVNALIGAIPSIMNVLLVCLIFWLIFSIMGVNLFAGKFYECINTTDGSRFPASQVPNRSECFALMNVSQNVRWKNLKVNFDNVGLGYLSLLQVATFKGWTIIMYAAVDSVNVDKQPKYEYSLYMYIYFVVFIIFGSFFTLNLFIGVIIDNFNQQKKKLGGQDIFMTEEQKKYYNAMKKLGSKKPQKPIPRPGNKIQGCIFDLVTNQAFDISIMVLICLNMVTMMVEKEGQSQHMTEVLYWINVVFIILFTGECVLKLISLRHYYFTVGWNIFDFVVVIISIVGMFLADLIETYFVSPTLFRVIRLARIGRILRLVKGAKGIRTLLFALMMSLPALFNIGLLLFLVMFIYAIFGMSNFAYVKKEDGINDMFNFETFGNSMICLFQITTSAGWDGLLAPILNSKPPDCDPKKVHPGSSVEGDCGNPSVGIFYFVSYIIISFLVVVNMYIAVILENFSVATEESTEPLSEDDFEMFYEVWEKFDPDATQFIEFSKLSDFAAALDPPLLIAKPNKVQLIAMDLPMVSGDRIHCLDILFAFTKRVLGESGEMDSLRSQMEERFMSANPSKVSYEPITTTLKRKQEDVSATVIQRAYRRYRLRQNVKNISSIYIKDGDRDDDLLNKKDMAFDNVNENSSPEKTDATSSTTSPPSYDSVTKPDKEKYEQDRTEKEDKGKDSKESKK

| IC50 [1] [µM] | IC50 [2] [µM] | SMILES |
| --- | --- | --- |
| 22 | – | COc1ccc(OCc2ccc(C(=O)NS(C)(=O)=O)cc2)cc1 [Example 31, 4-[(4-Methoxyphenoxy)methyl]-N-(methylsulfonyl)benzamide] |
| – | > 1 | Cc1cccc(COc2cc(F)c(C(=O)NS(C)(=O)=O)cc2F)c1 [Example 217, 2,5-difluoro-4-[(3-methylbenzyl)oxy]-N-(methylsulfonyl)benzamide] |
| – | 3.4 | CS(=O)(=O)NC(=O)c1cc(F)c(OCc2ccccc2OC(F)F)cc1F [Example 218, 4-{[2-(difluoromethoxy)benzyl]oxy}-2,5-difluoro-N-(methylsulfonyl)benzamide] |
| – | > 1 | COc1ccc(C)cc1COc1cc(F)c(C(=O)NS(C)(=O)=O)cc1F [Example 219, 2,5-difluoro-4-[(2-methoxy-5-methylbenzyl)oxy]-N-(methylsulfonyl)benzamide] |
| – | 1.7 | CS(=O)(=O)NC(=O)c1cc(F)c(OCc2ccccc2C(F)(F)F)cc1F [Example 220, 2,5-difluoro-N-(methylsulfonyl)-4-{[2-(trifluoromethyl)benzyl]oxy}benzamide] |
| – | 1.8 | CS(=O)(=O)NC(=O)c1cc(F)c(OCc2ccccc2Cl)cc1F [Example 221, 4-[(2-chlorobenzyl)oxy]-2,5-difluoro-N-(methylsulfonyl)benzamide] |
| – | 3.6 | COc1cc(COc2cc(F)c(C(=O)NS(C)(=O)=O)cc2F)ccc1C [Example 222, 2,5-difluoro-4-[(3-methoxy-4-methylbenzyl)oxy]-N-(methylsulfonyl)benzamide] |
| – | > 0.3 | COc1ccc(Cl)cc1COc1ccc(C(=O)NS(C)(=O)=O)cc1 [Example 223, 4-[(5-chloro-2-methoxybenzyl)oxy]-N-(methylsulfonyl)benzamide] |
| – | > 0.3 | CS(=O)(=O)NC(=O)c1cc(F)c(OCc2cccc(OC(F)F)c2)cc1F [Example 224, 4-{[3-(difluoromethoxy)benzyl]oxy}-2,5-difluoro-N-(methylsulfonyl)benzamide] |
| – | > 0.3 | CS(=O)(=O)NC(=O)c1cc(F)c(OCc2ccc(Cl)cc2)cc1F [Example 225, 4-[(4-chlorobenzyl)oxy]-2,5-difluoro-N-(methylsulfonyl)benzamide] |
| – | > 1 | CCOc1ccccc1COc1cc(F)c(C(=O)NS(C)(=O)=O)cc1F [Example 226, 4-[(2-ethoxybenzyl)oxy]-2,5-difluoro-N-(methylsulfonyl)benzamide] |
| – | 0.94 | CS(=O)(=O)NC(=O)c1cc(F)c(OCc2ccc3ccccc3c2)cc1F [Example 227, 2,5-difluoro-N-(methylsulfonyl)-4-(2-naphthylmethoxy)benzamide] |
| – | 1.2 | Cc1ccc(COc2cc(F)c(C(=O)NS(C)(=O)=O)cc2F)cc1Cl [Example 228, 4-[(3-chloro-4-methylbenzyl)oxy]-2,5-difluoro-N-(methylsulfonyl)benzamide] |
| – | > 1 | CS(=O)(=O)NC(=O)c1cc(F)c(OCc2cc(F)ccc2F)cc1F [Example 229, 4-[(2,5-difluorobenzyl)oxy]-2,5-difluoro-N-(methylsulfonyl)benzamide] |
| – | 2.2 | COc1ccc(Cl)cc1COc1cc(F)c(C(=O)NS(C)(=O)=O)cc1F [Example 230, 4-[(5-chloro-2-methoxybenzyl)oxy]-2,5-difluoro-N-(methylsulfonyl)benzamide] |
| – | 1.4 | CS(=O)(=O)NC(=O)c1cc(F)c(OCc2ccc(Cl)cc2F)cc1F [Example 231, 4-[(4-chloro-2-fluorobenzyl)oxy]-2,5-difluoro-N-(methylsulfonyl)benzamide] |
| – | 2.1 | CS(=O)(=O)NC(=O)c1cc(F)c(OCc2ccc(F)cc2Cl)cc1F [Example 232, 4-[(2-chloro-4-fluorobenzyl)oxy]-2,5-difluoro-N-(methylsulfonyl)benzamide] |
| – | > 1 | COc1ccccc1COc1cc(F)c(C(=O)NS(C)(=O)=O)cc1F [Example 233, 2,5-difluoro-4-[(2-methoxybenzyl)oxy]-N-(methylsulfonyl)benzamide] |
